According to patent US10131652B2, “Pyrimidinyloxy benzene derivatives as herbicides” (E. I. DU PONT DE NEMOURS AND COMPANY, priority 2014, dated 2018):
Read-outs that look alike come from different tables or passages of the source.

Legend:
Experiment in all cases: Test F pre-/postemergence plant response
Format in all cases: in vivo
[1] = test system: field bindweed (Convolvulus arvensis); conditions: Convolvulus arvensis, scale 0 to 100, read-out: Plant response rating, Field Bindweed
Excerpt: (§1) Seeds of plant species selected from corn (Zea mays), soybean (Glycine max), velvetleaf (Abutilon theophrasti), lambsquarters (Chenopodium album), wild poinsettia (Euphorbia heterophylla), palmer pigweed (Amaranthus palmeri), waterhemp (common waterhemp, Amaranthus rudis), surinam grass (Brachiaria decumbens), large (Lg) crabgrass (Digitaria sanguinalis), Brazilian crabgrass (Digitaria horizontalis), fall panicum (Panicum dichotomiflorum), giant foxtail (Setaria faberii), green foxtail (Setaria viridis), goosegrass (Eleusine indica), johnsongrass (Sorghum halepense), ragweed (common ragweed, Ambrosia elatior), barnyardgrass (Echinochloa crus-galli), sandbur (southern sandbur, Cenchrus echinatus), arrowleaf sida (Sida rhombifolia), Italian ryegrass (Lolium multiflorum), dayflower (Virginia (VA) dayflower, Commelina virginica), field bindweed (Convolvulus arvensis), cocklebur (common cocklebur, Xanthium strumarium), momingglory (Ipomoea coccinea), nightshade (eastern black nightshade, Solanum ptycanthum), kochia (Kochia scoparia), yellow nutsedge (Cyperus esculentus), and hairy beggarticks (Bidens pilosa), were planted into a silt loam soil and treated preemergence with test chemicals formulated in a non-phytotoxic solvent mixture which included a surfactant.
(§2) At the same time, plants from these crop and weed species and also waterhemp_RES1, (ALS & Triazine resistant common waterhemp, Amaranthus rudis), and waterhemp_RES2, (ALS & HPPD resistant common waterhemp, Amaranthus rudis) were treated with postemergence applications of test chemicals formulated in the same manner. Plants ranged in height from 2 to 18 cm for postemergence treatments (1- to 4-leaf stage).
(§3) Treated plants and controls were maintained in a greenhouse for 14 to 21 days, after which time all species were compared to controls and visually evaluated. Plant response ratings, summarized in Table F, are based on a scale of 0 to 100 where 0 is no effect and 100 is complete control. A dash (-) response means no test result.

[2] = test system: yellow nutsedge (Cyperus esculentus); conditions: Cyperus, pre-emergence, scale 0 to 100, read-out: Plant response rating, Nutsedge, Yellow
Excerpt: as §1, §2, §3

[3] = test system: goosegrass (Eleusine indica); conditions: Eleusine indica, pre-emergence, scale 0 to 100, read-out: Plant response rating, Goosegrass
Excerpt: as §1, §2, §3

soybean (Glycine max) = conditions: Glycine max, scale 0 to 100, read-out: Plant response rating, Soybean
Excerpt: as §1, §2, §3

[4] = test system: large (Lg) crabgrass (Digitaria sanguinalis); conditions: Digitaria sanguinalis, pre-emergence, scale 0 to 100, read-out: Plant response rating, Crabgrass, Large
Excerpt: as §1, §2, §3

[5] = test system: Italian ryegrass (Lolium multiflorum); conditions: Lolium multiflorum, scale 0 to 100, read-out: Plant response rating, Ryegrass, Italian; for pest or weed control at 16 g/ha: 16 g ai/ha; for pest or weed control at 31 g/ha: 31 g ai/ha; for pest or weed control at 125 g/ha: 125 g ai/ha
Excerpt: as §1, §2, §3

[6] = test system: hairy beggarticks (Bidens pilosa); conditions: Bidens pilosa, scale 0 to 100, read-out: Plant response rating, Beggarticks
Excerpt: as §1, §2, §3

kochia (Kochia scoparia) = conditions: Bassia scoparia, pre-emergence, scale 0 to 100, read-out: Plant response rating, Kochia
Excerpt: as §1, §2, §3

[7] = post-emergence, 8 g ai/ha Postemergence
[8] = post-emergence, 16 g ai/ha Postemergence
[9] = post-emergence, 31 g ai/ha Postemergence
[10] = post-emergence, 62 g ai/ha Postemergence
[11] = post-emergence, 125 g ai/ha Postemergence
[12] = pre-emergence, 8 g ai/ha Preemergence
[13] = pre-emergence, 16 g ai/ha Preemergence
[14] = pre-emergence, 31 g ai/ha Preemergence
[15] = pre-emergence, 62 g ai/ha Preemergence
[16] = pre-emergence, 125 g ai/ha Preemergence

FC(F)c1cc(-c2ccccc2Oc2ncc(Cl)cn2)no1 [Compound 35, 5-chloro-2-[2-[5-(difluoromethyl)-3-isoxazolyl]phenoxy]pyrimidine]
0%: pest or weed control at 8 g/ha [1, 12] | pest or weed control at 8 g/ha ([2]; 8 g ai/ha Preemergence) | pest or weed control at 16 g/ha ([2]; 16 g ai/ha Preemergence) | pest or weed control at 31 g/ha ([2]; 31 g ai/ha Preemergence) | pest or weed control at 8 g/ha ([3]; 8 g ai/ha Preemergence) | pest or weed control at 16 g/ha ([3]; 16 g ai/ha Preemergence) | plant injury at 8 g/ha (soybean (Glycine max); [12]) | pest or weed control at 8 g/ha ([4]; 8 g ai/ha Preemergence) | pest or weed control at 8 g/ha [5, 7] | pest or weed control at 16 g/ha ([5]; post-emergence, Postemergence) | pest or weed control at 31 g/ha ([5]; post-emergence, Postemergence) | pest or weed control at 62 g/ha ([5]; post-emergence, 62 g ai/ha, Postemergence) | pest or weed control at 125 g/ha ([5]; post-emergence, Postemergence) | pest or weed control at 8 g/ha [5, 12] | pest or weed control at 16 g/ha ([5]; pre-emergence, Preemergence) | pest or weed control at 8 g/ha [6, 12] | pest or weed control at 16 g/ha [6, 13] | pest or weed control at 8 g/ha (kochia (Kochia scoparia); 8 g ai/ha Preemergence)
30%: pest or weed control at 16 g/ha [1, 8]
50%: pest or weed control at 62 g/ha [1, 10] | pest or weed control at 31 g/ha [1, 14] | pest or weed control at 62 g/ha [1, 15] | pest or weed control at 125 g/ha [1, 16] | pest or weed control at 8 g/ha [6, 7] | pest or weed control at 16 g/ha [6, 8] | pest or weed control at 125 g/ha [6, 16]
35%: pest or weed control at 31 g/ha [1, 9] | pest or weed control at 16 g/ha [1, 13] | pest or weed control at 125 g/ha ([2]; 125 g ai/ha Preemergence) | plant injury at 16 g/ha (soybean (Glycine max); [13])
95%: pest or weed control at 125 g/ha ([3]; 125 g ai/ha Preemergence) | plant injury at 62 g/ha (soybean (Glycine max); [10])
98%: plant injury at 125 g/ha (soybean (Glycine max); [11])
75%: pest or weed control at 62 g/ha ([3]; Preemergence) | pest or weed control at 31 g/ha ([4]; 31 g ai/ha Preemergence) | pest or weed control at 62 g/ha ([4]; 62 g ai/ha Preemergence)
90%: plant injury at 125 g/ha (soybean (Glycine max); [16])
100%: pest or weed control at 125 g/ha ([4]; 125 g ai/ha Preemergence) | pest or weed control at 125 g/ha (kochia (Kochia scoparia); 125 g ai/ha, Preemergence) | pest or weed control at 62 g/ha (kochia (Kochia scoparia); Preemergence)
10%: pest or weed control at 62 g/ha ([2]; Preemergence)
60%: pest or weed control at 31 g/ha ([3]; 31 g ai/ha Preemergence) | pest or weed control at 16 g/ha ([4]; 16 g ai/ha Preemergence) | pest or weed control at 31 g/ha [6, 9]
15%: pest or weed control at 31 g/ha ([5]; pre-emergence, Preemergence)
65%: pest or weed control at 62 g/ha ([5]; pre-emergence, Preemergence) | pest or weed control at 62 g/ha [6, 10]
80%: plant injury at 16 g/ha (soybean (Glycine max); [8])
40%: plant injury at 31 g/ha (soybean (Glycine max); [14]) | pest or weed control at 16 g/ha (kochia (Kochia scoparia); 16 g ai/ha, Preemergence)
70%: pest or weed control at 125 g/ha [1, 11] | plant injury at 8 g/ha (soybean (Glycine max); [7]) | plant injury at 62 g/ha (soybean (Glycine max); pre-emergence, Preemergence) | pest or weed control at 125 g/ha ([5]; pre-emergence, Preemergence) | pest or weed control at 125 g/ha [6, 11]
85%: plant injury at 31 g/ha (soybean (Glycine max); [9]) | pest or weed control at 31 g/ha (kochia (Kochia scoparia); 31 g ai/ha, Preemergence)
20%: pest or weed control at 8 g/ha [1, 7] | pest or weed control at 31 g/ha [6, 14] | pest or weed control at 62 g/ha [6, 15]
